Assay results reported in patent publication US6337182B1, “Method for the quantitative determination of DNA sequences” (Dade Behring Marburg GmbH, priority 1990, dated 2002).
Several values for one entry are separate records, joined by “and”; a condition that tells them apart may be missing. Equal values may be shown once.

Tested on: TaqI-endonuclease site TCGA (2508-2511) of exon 3 of the c-Ha-ras gene
Test: Detection of ethylnitrosourea induced mutations in the TaqI site of c-Ha-ras exon 3 in cultured human fibroblasts (selective PCR, plaque hybridization)
Type: cell-based
Experimental: Monolayer cultures of human foreskin fibroblasts 3229 (other cell lines of the same origin work equally well) are treated with the carcinogen ethylnitrosourea (ENU, 2mM) in DMSO or sham-treated with DMSO only and harvested 3 days later. Total DNA is extracted and digested exhaustively with BamHI yielding a 6.6 Kb fragment containing the c-Ha-ras gene. The digestion mixture is separated on a 1% agarose gel and the DNA in the region from 6.0-7.0 Kb eluted in a “Biotrap” apparatus as described in Example I. The completeness of the BamHI digestion and the recovery of the c-Ha-ras sequences from the gel are monitored by Southern-blotting with a 6.6 Kb c-Ha-ras probe. “Biotrap” purified DNA (6.0-7.0 Kb, corresponding to 25 μg BamHI digested genomic DNA) is then exhaustively digested with TaqI endonuclease and a fragment containing the TaqI site 2508-2511 (TCGA) of the c-Ha-ras gene amplified as described below and illustrated in FIG. 2. At the outset of the amplification 10 copies of an authentic “standard” sequence are added which contain the sequence ACGT at residues 2508-2511 (and a G-instead of the C residue at position 2503), but are otherwise identical to wt c-Ha-ras.
The digested DNA was amplified, utilizing a “nested primer approach” to selectively amplify only DNA containing a mutated TaqI restriction site.
1. Amplification Cycles 1-15. The cycles 1-15 were conducted with the outer primers (see FIG. 2) yielding a 237 bp fragment. Each cycle consists of a melting temperature of 81° C. (1.1 min), an annealing temperature of 55° C. (0.8 min), and an extension temperature of 65° C. (0.3 min). The initial contents of each amplification tube are as follows: 2.5 μl of “digested DNA” (i.e. TaqI digested 6.0-7.0 Kb BamHI fragment population described above); 0.75 μg of each outer primer (primers 1 and 2, see FIG. 2); 25 mM each of dATP, dCTP, dGTP and dTTP; 21% DMSO; 66.6 mM Tris-HCl, pH 8.8, 16.6 mM ammonium sulfate; 6.7 mM magnesium chloride; 10 mM 2-merc:aptoethanol, 6.7 μM EDTA, and 1.5 units Taq polymerase, in a total volume of 25 μl. To prevent evaporation during temperature cycling, an overlay of 3-4 drops of paraffin oil is added to each tube. (Note: Taq polymerase is added to the tubes after an initial melting period of 3 minutes at 92° C. Subsequently, one μl additions of a TaqI endonuclease-containing TaqI Mix are made to the appropriate amplification tubes during the annealing periods of cycles 1, 3, 5, 7 , 9, 11, 13 and 15). The TaqI mix contains 25 mM each of DATP, dCTP, dGTP and dTTP; 21% DMSO; 66.6 mM Tris-HC1, pH 8.8; 16.6 mM ammonium sulfate; 6.7 mM magnesium chloride; 10 mM 2-mercaptoethanol; 6.7 μm EDTA; 0.12 units/μl Taq polymerase and 1.2 units/μl TaqI endonuclease.
Amplification cycles 16-25 are conducted at a higher melting temprature (91° C.) and a lower DMSO concentration (12%) with the outer primers (primers 1 and 2, see FIG. 2). Each cycle consists of a melting temperature of 91° C. (0.8 min) and an annealing temperature of 57° C. (0.4 min). After the 15th cycle, the DMSO concentration is reduced to 12% by transferring 16 μl of each amplification solution to new tubes which contain 11 μl of a DMSO-free mixture consisting of 229 ng of each outer primer/11 μl; 25 mM each of dATP, dCTP, dGTP and dTTP; 66.6 mM Tris-HCl, pH 8.8; 16.6 mM ammonium sulfate; 6.7 mM magnesium chloride, 10 mM 2.-mercaptoethanol and 6.7 μM EDTA. Paraffin oil (3 drops) is added to each tube and the 16th cycle begun with an initial melting period of 3 min at 92° C., after which 1.5 units of Taq polymerase is added to each tube.
Amplification cycles 26-41 are conducted with the inner primers (primers 3 and 4, see FIG. 2), which contain “EcoRI tails” to facilitate later ligation into phage arms. With the chosen inner primers a 184 bp fragment is synthesized. In order to reduce competition between outer and inner primers, the outer primer concentration is reduced by a factor of 121 relative to the inner primer concentration. […]

[1] = mean of 4 Petri dishes, 2 mM ethylnitrosourea, human fibroblasts (3229)

In the case of `CCN(N=O)C(N)=O` [ethylnitrosourea], the “copies of mutated sequence TCTA in the original DNA sample” value (25 μg DNA, 10 copies of standard gave 17% plaques, mutation 7%) is reported as 6 copies, the “plaques containing wt sequence DNA or any of the remaining 11 possible base-pair mutations” value (2 mM ethylnitrosourea, human fibroblasts (3229)) is reported as “No plaques were detected” and the “frequency of induced base-pair mutation TCGA→TCTA at sequence 2508-2511 of the human c-Ha-ras gene” value (2 mM, human fibroblasts 3229, estimated against 10 copies of standard sequence) is reported as ~7.5 mutations in 10^7 c-Ha-ras genes. For the same compound, the mutation frequency (TCGA→TCTA, 2 mM, human fibroblasts 3229, 25 μg DNA) was ~7.5×10^−7 per c-Ha-ras gene, the “plaques containing mutated sequence TCTA, mean” value [1] was 13.2 and the “plaques containing mutated sequence TCTA, mean share” value [1] was “(7%)”. For the same compound, the “plaques containing mutated sequence TCTA” value (number of plaques per Petri dish, DNA from 3 × 10^6 human fibroblasts (3229) treated with 2 mM ethylnitrosourea, harvested 3 days later) was 16 and 13 and 12.
